How the values were obtained:
[1] = test system: C3H/HeNCrljBgi mice; experiment: Animal Test 3: organic acid effect and soy extracted phospholipid effect, hair growth area; format: in vivo, mouse; details: 2.5 weeks, twice a day, phospholipids 20 mg/ml, minoxidil 5% applied to all groups except Group 1 30 minutes before the composition
Experimental: In addition, the composition was prepared by using soy lecithin (phospholipid extracted from soy, #86015-1201, Junsei Chemical, Japan), and then effect of the composition on hair growth was compared. C3H/HeNCrljBgi species of 7 ages of weeks (Orient Bio, Sungnam, Korea) were purchased as the experimental mice, and then used for the test. […] The composition of the present invention was applied for 2.5 weeks, and 60 ml of the composition was applied on the backs of the hairs-removed mice twice a day. The concentration of the applied phospholipids was 20 mg/ml. As a measurement of hair growth in the mice, the pictures of the mice of each experimental group were taken, respectively, and then the ratio of the hair growth area in the hairs-removed area was calculated.

[2] = test system: mice with DNFB-induced allergic dermatitis; experiment: Animal Test 1: hair follicle growth in back skin tissue of mice with DNFB-induced allergic dermatitis; format: in vivo, mouse; details: comparators: Tacrolimus ointment (FIG. 5), 0.1% dexamethasone in ethanol (FIG. 6), twice a day, 10 days
Text: In order to prepare animal models with an atopic dermatitis, or a contact dermatitis and allergic dermatitis, After 1 week of sensitizing with DNFB, DNFB was applied to the backs of mice total 10 times per 2 weeks to induce an artificial allergic dermatitis. […] Since applying DNFB five times, the composition of the present invention, Tacrolimus ointment (trade name, Protopic, Astella Pharma Korea, Inc.), and dexamethasone (Sigma Chem. Co. USA, 0.1% solution dissolved in ethanol) were applied to the backs of mice occurred with inflammation twice a day in the amount of 60 ml, respectively. At 10 days after applying, the mice tissues were collected to test experiments.

Compound	Hair growth area (ratio of the hair growth area in the hairs-removed area) [1]	hair follicle growth in mice tissues [2]
Nc1cc(N2CCCCC2)nc(N)[n+]1[O-] [Minoxidil, minoxidil]	10.2	–
C=CC[C@@H]1/C=C(\C)C[C@H](C)C[C@H](OC)[C@H]2O[C@@](O)(C(=O)C(=O)N3CCCC[C@H]3C(=O)O[C@H](/C(C)=C/[C@@H]3CC[C@@H](O)[C@H](OC)C3)[C@H](C)[C@@H](O)CC1=O)[C@H](C)C[C@@H]2OC [Tacrolimus, tacrolimus]	–	new hair follicles were formed
